# Results published in US10150737B2, “Compounds for controlling arthropods” (priority 2013, dated 2018).
# What was measured:
# Boophilus microplus = Boophilus microplus - injection test; assay type: in vivo; details: application rate 20 μg/animal, injection into engorged adult female ticks, after 7 days
# In short: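 Five engorged adult female cattle ticks each received a 1 μl abdominal injection of compound solution in dimethyl sulphoxide. Fertile egg laying was assessed at 7 days, with doubtful eggs incubated about 42 days until hatch. 0% efficacy means all eggs fertile.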
# Tetranychus urticae = Tetranychus urticae - spray test, OP-resistant; assay type: in vivo; details: bean leaf discs, after 6 days
# In short: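 Mortality (%) read on day 6 after spraying Phaseolus vulgaris leaf discs carrying all mite stages with formulations at the desired concentration. Formulation: active ingredient in acetone plus dimethylformamide, made up with emulsifier-containing water (1000 ppm alkylaryl polyglycol ether).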
# [1] = test system: Boophilus microplus Parkhurst strain, SP-resistant; assay: Boophilus microplus - dip test; assay type: in vivo; details: application rate 100 ppm; dip of engorged adult female ticks; after 7 days
# Method: Test animals: cattle ticks (Boophilus microplus) Parkhurst strain, SP-resistant
# Solvent: dimethyl sulphoxide
# 10 mg of active ingredient are dissolved in 0.5 ml of dimethyl sulphoxide. For the purpose of producing a suitable formulation, the active ingredient solution is diluted with water to the concentration desired in each case.
# This active ingredient formulation is pipetted into tubes. 8-10 adult engorged female cattle ticks (Boophilus microplus) are transferred into a further tube with holes. The tube is immersed into the active ingredient formulation, and all the ticks are completely wetted. After the liquid has run out, the ticks are transferred on filter discs into plastic dishes and stored in a climate-controlled room.
# Efficacy is assessed after 7 days by laying of fertile eggs. Eggs which are not visibly fertile are stored in a climate-controlled cabinet until the larvae hatch after about 42 days. An efficacy of 100% means that none of the ticks has laid any fertile eggs; 0% means that all the eggs are fertile.
# Musca domestica = Musca domestica test; assay type: in vivo; details: application rate 100 ppm; adult houseflies; after 2 days
# In short: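 First, 10 mg compound was taken up in 0.5 ml DMSO and then brought with water to the required concentration. This was applied with sugar solution to a sponge in vessels holding 10 adult flies; kill was assessed after 2 days.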
# Lucilia cuprina = Lucilia cuprina test; assay type: in vivo; details: application rate 100 ppm; L1 larvae; after 2 days
# In short: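 Mortality (%) of first-instar blowfly larvae, about 20 per vessel, recorded 2 days after exposure to compound-treated minced horsemeat. Compound dissolved in dimethyl sulphoxide, then water-diluted to the desired concentration.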
# Ctenocephalides felis [2] = assay: Ctenocephalides felis - in vitro contact tests with adult cat fleas; assay type: in vivo; details: application rate 5 μg/cm2 (=500 g/ha); after 48 h; fleas dead or moribund
# Method: (§1) For the coating of the test tubes, 9 mg of active ingredient are first dissolved in 1 ml of acetone p.a. and then diluted to the desired concentration with acetone p.a. 250 μl of the solution are distributed homogeneously on the inner walls and base of a 25 ml test tube by turning and rocking on an orbital shaker (rocking rotation at 30 rpm for 2 h). With 900 ppm active ingredient solution and internal surface area 44.7 cm^2, given homogeneous distribution, an area-based dose of 5 μg/cm^2 is achieved.
# After the solvent has evaporated off, the tubes are populated with 5-10 adult cat fleas (Ctenocephalides felis), sealed with a perforated plastic lid and incubated in a horizontal position at room temperature and ambient humidity. After 48 h, efficacy is determined. To this end, the test tubes are stood upright and the fleas are knocked to the base of the tube. Fleas which remain motionless at the base or move in an uncoordinated manner are considered to be dead or moribund.
# 100% efficacy means that all the fleas were dead or moribund. 0% efficacy means that no fleas were harmed.
# [3] = logP determination by HPLC on a reversed-phase column (C18); assay type: physicochemical; details: for logP^a): HPLC-MS method a); for log P: HPLC-MS
# Phaedon cochleariae = Phaedon cochleariae - spray test; assay type: in vivo; details: larvae on Chinese cabbage leaf discs, after 7 days
# In short: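 Mortality of mustard beetle larvae was scored as % at day 7 on Brassica pekinensis leaf discs. Discs had been treated by spraying at the desired concentration, using an acetone/dimethylformamide solution diluted in water with 1000 ppm alkylaryl polyglycol ether, and dried before larvae were added.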
# Myzus persicae = Myzus persicae - spray test; assay type: in vivo; details: Chinese cabbage leaf discs, after 6 days
# Method: Solvent: 78 parts by weight of acetone and 1.5 parts by weight of dimethylformamide
# Emulsifier: alkylaryl polyglycol ether
# To produce an appropriate active ingredient formulation, 1 part by weight of active ingredient is dissolved using the specified parts by weight of solvent and made up with water containing an emulsifier concentration of 1000 ppm until the desired concentration is attained. To produce further test concentrations, the preparation is diluted with emulsifier-containing water.
# Discs of Chinese cabbage leaves (Brassica pekinensis) infested by all stages of the green peach aphid (Myzus persicae) are sprayed with an active ingredient formulation of the desired concentration.
# After 6 days, efficacy in % is determined. 100% means that all the aphids have been killed; 0% means that none of the aphids have been killed.
# Ctenocephalides felis [4] = assay: Ctenocephalides felis - oral test; assay type: in vivo; details: application rate 100 ppm in citrated cattle blood; after 2 days
# In short: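 Roughly 20 unfed adult C. felis imbibe compound-dosed citrated cattle blood (DMSO formulation) across parafilm from a cylinder above their gauze chamber; percentage mortality recorded at day 2.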
# Spodoptera frugiperda = Spodoptera frugiperda - spray test; assay type: in vivo; details: caterpillars on maize leaf discs, after 7 days
# In short: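 Percent mortality of Spodoptera frugiperda caterpillars scored 7 days after placing them on dried maize leaf discs sprayed at the desired concentration. Spray formulation: compound dissolved in acetone/dimethylformamide, made up with water containing 1000 ppm emulsifier.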
# Rhipicephalus sanguineus = Rhipicephalus sanguineus - in vitro contact tests with adult brown dog ticks; assay type: in vivo; details: after 48 h, ticks dead or moribund
# Method: as §1, with “surface” for “surface area”
# After the solvent has evaporated off, the tubes are populated with 5-10 adult dog ticks (Rhipicephalus sanguineus), sealed with a perforated plastic lid and incubated in a horizontal position in the dark at room temperature and ambient humidity. After 48 h, efficacy is determined. To this end, the ticks are knocked to the floor of the tube and incubated on a hotplate at 45-50° C. for not more than 5 min. Ticks which remain motionless on the floor or move in such an uncoordinated manner that they are unable to deliberately avoid the heat by climbing upwards are considered to be dead or moribund.
# An efficacy of 100% means that all the ticks were dead or moribund. 0% efficacy means that none of the ticks had been harmed.
# [5] = reversed-phase column (C18), Table I-T3
smiles,measurement,setting,value
Cc1cc(C(F)(C(F)(F)F)C(F)(F)F)cc(C)c1-n1cc(-c2cnc(C)c(C(=O)N(C)C3CC3)c2)cn1 [I-T3-120],efficacy (laying of fertile eggs),Boophilus microplus,100%
same,efficacy,Tetranychus urticae; application rate 500 g/ha,100%
same,efficacy (laying of fertile eggs),[1],100%
same,efficacy (kill),Musca domestica,100%
same,efficacy (kill),Lucilia cuprina,100%
same,efficacy,Ctenocephalides felis [2],100%
same,logP^a),[3]; reversed-phase column (C18),3.6
same,log P,[3]; [5],3.6
same,efficacy,Phaedon cochleariae; application rate 500 g/ha,100%
same,efficacy,Myzus persicae; application rate 100 g/ha,100%
same,efficacy,Myzus persicae; application rate 500 g/ha,90%
same,efficacy (kill),Ctenocephalides felis [4],100%
same,efficacy,Spodoptera frugiperda; application rate 500 g/ha,100%
O=C(NC1CC1)c1cc(-c2cnn(-c3ccc(C(F)(C(F)(F)F)C(F)(F)F)cc3C(F)(F)F)c2)ccc1Cl [I-T3-52],efficacy (laying of fertile eggs),Boophilus microplus,100%
same,efficacy,Tetranychus urticae; application rate 100 g/ha,90%
same,efficacy (kill),Musca domestica,100%
same,efficacy,Rhipicephalus sanguineus; application rate 5 μg/cm2,100%
same,efficacy (kill),Lucilia cuprina,100%
same,logP^a),[3],4.3
same,logP^a),[3]; [5],4.3
same,efficacy,Phaedon cochleariae; application rate 100 g/ha,100%
same,efficacy (kill),Ctenocephalides felis [4],100%
same,efficacy,Spodoptera frugiperda; application rate 100 g/ha,100%
COc1ncc(-c2cnn(-c3c(C)cc(C(F)(C(F)(F)F)C(F)(F)F)cc3C)c2)cc1C(=O)NC1(C#N)CC1 [I-T3-141],efficacy (laying of fertile eggs),Boophilus microplus,100%
same,efficacy (kill),Musca domestica,100%
same,efficacy,Rhipicephalus sanguineus; application rate 1 μg/cm2,100%
same,efficacy (kill),Lucilia cuprina,100%
same,logP^a),[3]; reversed-phase column (C18),4.4
same,log P,[3]; [5],4.4
same,efficacy,Phaedon cochleariae; application rate 100 g/ha,100%
same,efficacy (kill),Ctenocephalides felis [4],100%
same,efficacy,Spodoptera frugiperda; application rate 100 g/ha,100%
"Cc1cc(C(F)(C(F)(F)F)C(F)(F)F)cc(C)c1-c1cnn(-c2ccc(Cl)c(C(=O)NC3CC3)c2)c1 [I-T4-1, N-cyclopropyl-2-chloro-5-[4-[2,6-dimethyl-4-[1,2,2,2-tetrafluoro-1-(trifluoromethyl)ethyl]phenyl]pyrazol-1-yl]benzamide]",pest or weed control at 0.02 mg,"Boophilus microplus; Rhipicephalus microplus, 168 h, read-out: efficacy (laying of fertile eggs)",100%
same,efficacy,Rhipicephalus sanguineus; application rate 5 μg/cm2,100%
same,logP,"[3]; HPLC, C18 reversed phase, acetonitrile/water with formic acid, EEC Directive 79/831 Annex V.A8",4.7
Cc1cc(C(F)(C(F)(F)F)C(F)(F)F)cc(C(F)(F)F)c1-n1cc(-c2cnc(C)c(C(=O)N(C)C3CC3)c2)cn1 [I-T3-118],efficacy (laying of fertile eggs),Boophilus microplus,100%
same,efficacy,Tetranychus urticae; application rate 500 g/ha,90%
same,efficacy (laying of fertile eggs),[1],100%
same,efficacy (kill),Musca domestica,100%
same,efficacy (kill),Lucilia cuprina,100%
same,efficacy,Ctenocephalides felis [2],100%
same,logP^a),[3]; reversed-phase column (C18),3.8
same,log P,[3]; [5],3.8
same,efficacy,Phaedon cochleariae; application rate 500 g/ha,100%
same,efficacy,Myzus persicae; application rate 100 g/ha,100%
same,efficacy (kill),Ctenocephalides felis [4],100%
same,efficacy,Spodoptera frugiperda; application rate 500 g/ha,100%
CCc1cc(C(F)(C(F)(F)F)C(F)(F)F)cc(C)c1-n1cc(-c2ccc(Cl)c(C(=O)NC3CSC3)c2)cn1 [I-T3-47],efficacy (laying of fertile eggs),Boophilus microplus,100%
same,efficacy,Tetranychus urticae; application rate 500 g/ha,100%
same,efficacy,Rhipicephalus sanguineus; application rate 5 μg/cm2,100%
same,efficacy (kill),Lucilia cuprina,100%
same,logP^a),[3],5.0
same,logP^a),[3]; [5],5.0
same,efficacy,Phaedon cochleariae; application rate 500 g/ha,100%
same,efficacy (kill),Ctenocephalides felis [4],100%
same,efficacy,Spodoptera frugiperda; application rate 500 g/ha,100%
Cc1ncc(-c2cnn(-c3c(Cl)cc(C(F)(C(F)(F)F)C(F)(F)F)cc3C(F)(F)F)c2)cc1C(=O)N(C)C1CC1 [I-T3-130],efficacy (laying of fertile eggs),Boophilus microplus,100%
same,efficacy,Tetranychus urticae; application rate 100 g/ha,100%
same,efficacy (laying of fertile eggs),[1],100%
same,efficacy (kill),Musca domestica,100%
same,efficacy (kill),Lucilia cuprina,100%
same,efficacy,Ctenocephalides felis [2],100%
same,logP^a),[3]; reversed-phase column (C18),3.8
same,log P,[3]; [5],3.8
same,efficacy,Phaedon cochleariae; application rate 100 g/ha,100%
same,efficacy,Myzus persicae; application rate 100 g/ha,100%
same,efficacy (kill),Ctenocephalides felis [4],100%
same,efficacy,Spodoptera frugiperda; application rate 100 g/ha,100%
CN(C(=O)c1cc(-c2cnn(-c3c(Cl)cc(C(F)(C(F)(F)F)C(F)(F)F)cc3C(F)(F)F)c2)cnc1Cl)C1CC1 [I-T3-113],efficacy (laying of fertile eggs),Boophilus microplus,100%
same,efficacy,Tetranychus urticae; application rate 500 g/ha,100%
same,efficacy (laying of fertile eggs),[1],100%
same,efficacy (kill),Musca domestica,100%
same,efficacy (kill),Lucilia cuprina,100%
same,logP^a),[3]; reversed-phase column (C18),4.0
same,log P,[3]; [5],4.0
same,efficacy,Phaedon cochleariae; application rate 500 g/ha,100%
same,efficacy,Myzus persicae; application rate 100 g/ha,100%
same,efficacy (kill),Ctenocephalides felis [4],100%
same,efficacy,Spodoptera frugiperda; application rate 500 g/ha,100%
CN(C(=O)c1cc(-c2cnn(-c3c(Cl)cc(C(F)(F)F)cc3Cl)c2)cnc1Cl)C1CC1 [I-T3-99],efficacy (laying of fertile eggs),Boophilus microplus,100%
same,efficacy,Tetranychus urticae; application rate 100 g/ha,100%
same,efficacy (laying of fertile eggs),[1],90%
same,efficacy (kill),Musca domestica,90%
same,efficacy (kill),Lucilia cuprina,100%
same,efficacy,Ctenocephalides felis [2],100%
same,logP^a),[3],3.5
same,log P,[3]; [5],3.5
same,efficacy,Phaedon cochleariae; application rate 100 g/ha,100%
same,efficacy,Myzus persicae; application rate 100 g/ha,100%
same,efficacy (kill),Ctenocephalides felis [4],100%
same,efficacy,Spodoptera frugiperda; application rate 100 g/ha,100%
Cc1cc(C(F)(C(F)(F)F)C(F)(F)F)cc(C)c1-n1cc(-c2cnc(C)c(C(=O)N(C)C3(C#N)CC3)c2)cn1 [I-T3-115],efficacy (laying of fertile eggs),Boophilus microplus,100%
same,efficacy,Tetranychus urticae; application rate 500 g/ha,100%
same,efficacy (laying of fertile eggs),[1],100%
same,efficacy (kill),Musca domestica,100%
same,efficacy (kill),Lucilia cuprina,100%
same,efficacy,Ctenocephalides felis [2],100%
same,logP^a),[3]; reversed-phase column (C18),3.8
same,log P,[3]; [5],3.8
same,efficacy,Phaedon cochleariae; application rate 500 g/ha,100%
same,efficacy,Myzus persicae; application rate 100 g/ha,100%
same,efficacy (kill),Ctenocephalides felis [4],100%
same,efficacy,Spodoptera frugiperda; application rate 500 g/ha,100%
